Source: patent publication US20120034193A1, “TREATMENT OF NEUROTROPHIC FACTOR MEDIATED DISORDERS” (priority 2009, published 2012)

Key:
pmn mice = test: Progressive motor neuropathy (pmn) mouse model; assay type: in vivo
Method: Affected homozygous +/+ pmn (“pmn mice”) mice were obtained from a breeding colony of extra toe locus(Xt)+/+pmn double heterozygous mice maintained at Neurofit (Illkirch, France). The pmn mice were dosed by oral gavage every day, starting 10 days after birth, just after the initial symptoms of the disease manifest. Sarsasapogenin (0.03, 0.3 and 3 μg/kg/day) was administered to pmn mice as a suspension in oil (10 ml/kg). Electromyographic (EMG) recordings were performed using a standard Neuromatic 2000M electromyograph apparatus in accordance with the guidelines of the American Association of Electrodiagnostic Medicine. Standard behavioural tests (grid, rotarod and hanging tests) performed weekly from day 8 assessed the motor performances of the pmn mice.
The effect of sarsasapogenin on motor function was assessed by recording the amplitude of gastrocnemius evoked motor response (CMAP, an indirect measurement of the number of functional motor neurones).

Testosterone = Testosterone (Rattus norvegicus, UniProt P15207); test: Receptor binding assay; settings: sarsasapogenin 10 μM
Testosterone, sequence (P15207 whole entry S389L): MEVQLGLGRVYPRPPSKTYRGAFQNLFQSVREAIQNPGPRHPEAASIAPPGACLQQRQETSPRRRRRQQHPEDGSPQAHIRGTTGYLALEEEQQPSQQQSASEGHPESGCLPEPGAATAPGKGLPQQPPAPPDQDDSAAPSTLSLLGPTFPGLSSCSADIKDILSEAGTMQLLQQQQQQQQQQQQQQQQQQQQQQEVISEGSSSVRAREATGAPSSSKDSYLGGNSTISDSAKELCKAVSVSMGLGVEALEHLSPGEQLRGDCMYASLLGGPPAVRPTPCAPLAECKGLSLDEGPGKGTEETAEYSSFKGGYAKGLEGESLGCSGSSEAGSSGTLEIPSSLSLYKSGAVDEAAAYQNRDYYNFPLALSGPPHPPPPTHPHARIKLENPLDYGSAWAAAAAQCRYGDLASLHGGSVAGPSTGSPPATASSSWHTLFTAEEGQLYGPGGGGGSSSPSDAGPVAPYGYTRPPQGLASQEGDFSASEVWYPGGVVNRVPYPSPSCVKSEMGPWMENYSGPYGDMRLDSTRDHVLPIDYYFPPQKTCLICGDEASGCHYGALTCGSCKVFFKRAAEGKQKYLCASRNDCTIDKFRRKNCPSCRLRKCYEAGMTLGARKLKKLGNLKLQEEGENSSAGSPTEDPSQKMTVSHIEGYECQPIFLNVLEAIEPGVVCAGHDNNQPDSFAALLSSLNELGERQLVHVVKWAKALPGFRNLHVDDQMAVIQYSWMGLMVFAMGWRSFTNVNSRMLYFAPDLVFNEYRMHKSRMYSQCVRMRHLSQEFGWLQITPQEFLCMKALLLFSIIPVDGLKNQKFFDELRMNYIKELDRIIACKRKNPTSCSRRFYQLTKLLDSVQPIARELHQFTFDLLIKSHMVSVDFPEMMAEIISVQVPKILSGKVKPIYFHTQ
Method: (§1) The receptor binding was investigated using the following method: Sarsasapogenin was incubated with tissue or cell homogenate that expressed the receptor of interest and a known concentration a radiolabelled compound with affinity for the receptor of interest. After the incubation period the non-bound radiolabelled compound was removed and the amount of specific binding was quantified. The amount of specific binding in the presence and absence of sarsasapogenin were compared and the percent inhibition of the binding of the radiolabelled compound by sarsasapogenin was calculated. The source of the receptor, the incubation conditions, the radiolabelled compound used varied depending on each specific assay.

Glucocorticoid = biological target: T1, Glucocorticoid (Homo sapiens, UniProt P04150); test: Receptor binding assay; settings: sarsasapogenin 10 μM
T1 construct: host or cells: tissue or cell homogenate, not specified
T1 sequence (P04150 whole entry): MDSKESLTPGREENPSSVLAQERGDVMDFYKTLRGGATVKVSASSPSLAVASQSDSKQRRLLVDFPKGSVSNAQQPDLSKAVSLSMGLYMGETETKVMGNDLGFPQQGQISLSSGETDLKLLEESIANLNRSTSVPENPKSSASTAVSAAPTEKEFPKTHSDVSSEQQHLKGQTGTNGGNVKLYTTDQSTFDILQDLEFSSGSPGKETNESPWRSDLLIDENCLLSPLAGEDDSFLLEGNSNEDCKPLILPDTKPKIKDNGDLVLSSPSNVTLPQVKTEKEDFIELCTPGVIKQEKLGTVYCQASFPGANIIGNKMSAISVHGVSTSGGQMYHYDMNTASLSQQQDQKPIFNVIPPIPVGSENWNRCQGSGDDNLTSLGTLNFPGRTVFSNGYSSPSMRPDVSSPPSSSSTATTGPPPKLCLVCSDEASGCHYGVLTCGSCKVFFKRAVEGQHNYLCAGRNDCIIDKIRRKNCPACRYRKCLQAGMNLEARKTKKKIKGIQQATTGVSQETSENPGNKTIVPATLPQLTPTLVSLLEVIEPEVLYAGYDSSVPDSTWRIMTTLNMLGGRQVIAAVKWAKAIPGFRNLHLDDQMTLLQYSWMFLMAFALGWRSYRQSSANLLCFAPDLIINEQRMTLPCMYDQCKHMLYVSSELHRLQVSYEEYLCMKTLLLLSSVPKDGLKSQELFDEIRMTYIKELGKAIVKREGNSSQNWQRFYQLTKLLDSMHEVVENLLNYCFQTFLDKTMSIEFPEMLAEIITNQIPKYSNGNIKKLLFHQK
Method: as §1

Muscarinic M1 = biological target: T2, Muscarinic M1 (Homo sapiens, UniProt P11229); test: Receptor binding assay; settings: sarsasapogenin 10 μM
T2 construct: host or cells: tissue or cell homogenate, not specified
T2 sequence (P11229 whole entry): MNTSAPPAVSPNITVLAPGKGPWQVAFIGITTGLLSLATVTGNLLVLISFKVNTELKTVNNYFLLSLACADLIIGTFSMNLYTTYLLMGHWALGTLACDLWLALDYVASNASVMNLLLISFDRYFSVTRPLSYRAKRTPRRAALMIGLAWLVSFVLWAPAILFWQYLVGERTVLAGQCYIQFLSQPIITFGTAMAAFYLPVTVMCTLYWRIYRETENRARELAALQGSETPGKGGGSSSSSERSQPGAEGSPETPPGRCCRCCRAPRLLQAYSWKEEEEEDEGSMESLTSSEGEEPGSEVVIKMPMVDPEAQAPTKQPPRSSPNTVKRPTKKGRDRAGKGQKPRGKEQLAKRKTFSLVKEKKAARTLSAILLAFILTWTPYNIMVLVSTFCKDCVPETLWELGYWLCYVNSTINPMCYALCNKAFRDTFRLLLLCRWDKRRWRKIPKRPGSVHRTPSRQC
Method: as §1

Muscarinic M3 = biological target: T3, Muscarinic M3 (Homo sapiens, UniProt P20309); test: Receptor binding assay; settings: sarsasapogenin 10 μM
T3 construct: host or cells: tissue or cell homogenate, not specified
T3 sequence (P20309 whole entry): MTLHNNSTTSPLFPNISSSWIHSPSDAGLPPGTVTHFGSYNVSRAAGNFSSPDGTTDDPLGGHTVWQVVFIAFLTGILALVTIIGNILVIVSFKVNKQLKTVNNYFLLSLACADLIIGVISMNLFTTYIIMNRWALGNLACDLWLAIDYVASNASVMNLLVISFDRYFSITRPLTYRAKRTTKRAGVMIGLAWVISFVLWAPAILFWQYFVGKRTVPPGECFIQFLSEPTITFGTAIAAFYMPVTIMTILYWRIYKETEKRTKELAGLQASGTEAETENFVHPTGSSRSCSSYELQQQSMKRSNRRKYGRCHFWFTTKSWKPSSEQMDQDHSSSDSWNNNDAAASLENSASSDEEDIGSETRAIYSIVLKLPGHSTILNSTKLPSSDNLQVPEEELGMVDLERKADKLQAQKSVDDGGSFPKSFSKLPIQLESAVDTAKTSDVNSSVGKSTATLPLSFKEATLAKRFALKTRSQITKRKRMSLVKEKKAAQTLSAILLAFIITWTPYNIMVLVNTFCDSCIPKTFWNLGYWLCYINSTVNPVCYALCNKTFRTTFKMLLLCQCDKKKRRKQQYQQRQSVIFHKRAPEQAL
Method: as §1

[1] = biological target: Nicotinic Acetylcholine α1, Bungarotoxin (Homo sapiens, UniProt P02708+P07510+Q07001); test: Binding assay; settings: smilagenin 1 μM
Nicotinic Acetylcholine α1, Bungarotoxin, sequence (P07510 23-517): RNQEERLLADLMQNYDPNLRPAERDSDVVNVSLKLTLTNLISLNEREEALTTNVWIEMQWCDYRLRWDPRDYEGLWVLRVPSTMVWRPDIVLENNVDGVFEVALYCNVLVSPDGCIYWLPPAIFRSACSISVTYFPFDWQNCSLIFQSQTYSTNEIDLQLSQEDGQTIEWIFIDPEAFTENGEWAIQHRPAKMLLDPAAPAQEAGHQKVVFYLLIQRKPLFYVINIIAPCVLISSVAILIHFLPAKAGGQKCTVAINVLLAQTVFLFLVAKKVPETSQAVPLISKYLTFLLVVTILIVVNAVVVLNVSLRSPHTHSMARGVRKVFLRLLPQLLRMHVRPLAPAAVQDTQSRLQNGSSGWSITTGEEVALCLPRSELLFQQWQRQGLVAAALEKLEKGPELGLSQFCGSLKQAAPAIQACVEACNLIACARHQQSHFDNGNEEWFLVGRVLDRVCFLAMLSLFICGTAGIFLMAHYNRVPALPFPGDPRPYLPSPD
Nicotinic Acetylcholine α1, Bungarotoxin, sequence (P11230 24-501, further chain): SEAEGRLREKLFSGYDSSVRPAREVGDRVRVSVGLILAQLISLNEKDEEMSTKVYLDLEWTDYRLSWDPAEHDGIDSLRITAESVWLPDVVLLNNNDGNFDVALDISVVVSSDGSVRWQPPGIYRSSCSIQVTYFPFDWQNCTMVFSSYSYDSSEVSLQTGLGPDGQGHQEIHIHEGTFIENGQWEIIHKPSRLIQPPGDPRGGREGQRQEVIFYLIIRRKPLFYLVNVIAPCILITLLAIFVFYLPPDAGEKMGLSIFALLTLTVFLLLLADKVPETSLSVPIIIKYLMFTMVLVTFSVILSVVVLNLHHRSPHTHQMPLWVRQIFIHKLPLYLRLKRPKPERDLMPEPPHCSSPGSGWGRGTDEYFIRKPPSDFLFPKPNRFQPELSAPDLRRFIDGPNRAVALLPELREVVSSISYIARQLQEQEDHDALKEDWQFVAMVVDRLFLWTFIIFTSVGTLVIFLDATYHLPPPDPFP
Nicotinic Acetylcholine α1, Bungarotoxin, sequence (Q07001 22-517): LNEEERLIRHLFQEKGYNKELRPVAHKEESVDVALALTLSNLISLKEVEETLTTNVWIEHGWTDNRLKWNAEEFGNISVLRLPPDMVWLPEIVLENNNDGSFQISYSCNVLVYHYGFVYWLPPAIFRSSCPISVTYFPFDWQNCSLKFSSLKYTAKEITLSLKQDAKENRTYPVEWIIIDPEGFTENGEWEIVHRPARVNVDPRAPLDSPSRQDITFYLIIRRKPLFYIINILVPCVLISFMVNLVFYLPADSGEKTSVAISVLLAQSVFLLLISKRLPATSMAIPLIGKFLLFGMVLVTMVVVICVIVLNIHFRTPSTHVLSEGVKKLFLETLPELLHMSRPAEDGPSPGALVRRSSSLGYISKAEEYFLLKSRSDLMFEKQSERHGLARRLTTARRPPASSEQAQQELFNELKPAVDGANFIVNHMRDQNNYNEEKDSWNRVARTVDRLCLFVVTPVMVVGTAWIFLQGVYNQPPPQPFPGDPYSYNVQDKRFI
Nicotinic Acetylcholine α1, Bungarotoxin, sequence (P02708 21-457): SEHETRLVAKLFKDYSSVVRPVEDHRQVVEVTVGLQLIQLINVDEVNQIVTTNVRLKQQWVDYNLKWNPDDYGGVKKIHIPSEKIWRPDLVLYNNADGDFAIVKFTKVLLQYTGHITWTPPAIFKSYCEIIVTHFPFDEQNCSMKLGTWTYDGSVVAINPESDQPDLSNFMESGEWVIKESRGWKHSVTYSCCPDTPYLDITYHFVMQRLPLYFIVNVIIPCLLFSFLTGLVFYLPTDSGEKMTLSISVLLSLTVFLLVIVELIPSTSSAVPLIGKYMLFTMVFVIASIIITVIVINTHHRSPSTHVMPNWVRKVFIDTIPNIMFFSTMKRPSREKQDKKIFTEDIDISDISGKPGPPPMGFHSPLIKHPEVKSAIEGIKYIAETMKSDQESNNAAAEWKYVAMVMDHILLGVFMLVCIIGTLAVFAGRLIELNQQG

[2] = tested on: Platelet-Derived Growth Factor (PDGF); test: Binding assay; parameters: species or system Mouse; settings: smilagenin 1 μM
Method: as §1
(§2) Using the same methods as described above, the binding of smilagenin (1 μM) to the receptors listed in Table 2 below, and the effect of smilagenin on the activity of the enzymes listed in Table 2 below, were investigated.

Phorbol Ester = test: Binding assay; parameters: species or system Mouse; settings: smilagenin 1 μM
Method: as §1, §2

[3] = tested on: Transforming Growth Factor-β (TGF-β); test: Binding assay; parameters: species or system Mouse; settings: smilagenin 1 μM
Method: as §1, §2

BDNF mRNA = BDNF mRNA in rat cortical neurones pre-incubated 48 h then exposed to β-amyloid; assay type: cell-based; settings: 10 μM pre-incubation 48 h
Method: Rat cortical neurones were cultured by modification of a method previously described (Eckenstein and Sofroniew, Journal of Neuroscience, 1983, 3, pp. 2286-2291). On day 8, the culture medium was changed to a medium containing vehicle (DMSO, 0.5%) or smilagenin (10 μM). On day 10, rat primary cortical neurones were exposed to β-amyloid (10 μg/ml) for up to 48 h at 37° C. and the level of BDNF mRNA in the cortical neurones was assessed by rt RT-PCR over the following 48 h.

Functional assay = assay type: biochemical; settings: smilagenin 1 μM
Method: (§3) The enzyme activity modulation was investigated using the following method: Sarsasapogenin was incubated with each enzyme plus a specific substrate for each enzyme. After the incubation period the reaction was stopped and the reduction of the specific substrate or the increase in a specific product in the absence and presence of sarsasapogenin was measured and the percent inhibition of the reaction in the presence of sarsasapogenin was calculated. The amount of enzyme used, the incubation conditions, the substrate used and the method of quantification varied depending on each specific assay.
as §2

BDNF [4] = test: BDNF protein in culture medium of rat cortical neurones under basal conditions; assay type: cell-based; settings: 10 μM, day 8 to day 12, basal culture; control 3.66 ± 0.05
Method: Rat cortical neurones were cultured by modification of a method previously described (Eckenstein and Sofroniew, Journal of Neuroscience, 1983, 3, pp. 2286-2291). On day 8, the culture medium was changed to a medium containing vehicle (DMSO, 0.5%) or smilagenin (10 μM). On day 12 the concentration of BDNF in the culture medium, was measured.

[5] = tested on: Protein Serine/Threonine Kinase, PKC, Non-Selective; test: Functional assay; assay type: biochemical, Rat; settings: smilagenin 1 μM
Method: as §3, §2

BDNF [6] = test: Unbound BDNF in the putamen of MPTP-lesioned macaques; assay type: in vivo, Macaca fascicularis; settings: smilagenin 20 mg/kg/day p.o., 18 weeks; control 257.58, MPTP 388.73
Method: Nineteen female cynomolgus monkeys (Macaca fascicularis, 3.0-4.5 kg, 4-6 years old) were acclimatised to the experimental setting and procedures for 3 months and baseline behaviour was assessed in all animals. Fourteen female macaques received MPTP (0.2 mg/kg/day, s.c.) until marked, stable, parkinsonian symptoms developed. Animals (n=7/group) were randomly assigned to two groups; smilagenin (20 mg/kg/day, p.o.) or vehicle control (HPMC, 0.5% w/v containing Tween 80, 0.2% v/v).
Assessments of parkinsonian disability were made after MPTP administration and following 18 weeks of smilagenin or vehicle administration. Parkinsonian disability was evaluated by post hoc analysis of DVD-recordings by a neurologist blinded to the treatment. At the end of the study the brains were removed and the levels of unbound GDNF and BDNF in the putamen were measured using Multiplex ELISA/Aushon assays. The MPTP treated macaques used in this experiment thus provide an accepted model for Parkinson's disease and similar motor-sensory neurodegenerative conditions.

GDNF = GDNF in culture medium of rat dopaminergic neurones exposed to MPP+; assay type: cell-based; settings: 10 μM from day 6, MPP+ 2 μM day 8 for 48 h; MPP+ alone 2.7 ± 0.5
Method: Rat dopaminergic neurones were prepared using a slightly modified previously described method (Brouard et al., Journal of Neuroscience, 1992, 12, pp. 1409-1415). On day 6 the culture medium was replaced with fresh medium or fresh medium containing smilagenin (10 μM) or vehicle (DMSO, 0.25%). On day 8, MPP^+ (2 μM) or vehicle (saline) was added and 48 h later dopaminergic neurones were stained and the concentration of GDNF in the culture medium, neuronal damage and neurite outgrowth were assessed.

Row | Structure (SMILES) | Progression of the motor neurone degeneration (pmn mice; 0.03 μg/kg/day oral, lowest tested dosage) | Amplitude of CMAP (motor function) (pmn mice; 0.3 μg/kg/day oral from day 10 after birth, p<0.001) | Increase of survival (lifespan) of pmn mice compared to control (pmn mice; 0.3 μg/kg/day oral, after symptoms manifest, p=0.006) | Rotarod and grid test performances (pmn mice; 0.3 μg/kg/day oral, p=0.02 vs pmn control) | Effect (%) (Testosterone) | Effect (%) (Glucocorticoid) | Effect (%) (Muscarinic M1) | Effect (%) (Muscarinic M3) | Effect (%) [1] | Effect (%) [2] | Effect (%) (Phorbol Ester) | Effect (%) [3] | Relative amount of BDNF mRNA (% of control at 0 h) (BDNF mRNA; β-amyloid 10 μg/ml exposure 6 h) | Relative amount of BDNF mRNA (% of control at 0 h) (BDNF mRNA; β-amyloid 10 μg/ml exposure 24 h) | Relative amount of BDNF mRNA (% of control at 0 h) (BDNF mRNA; β-amyloid 10 μg/ml exposure 48 h) | Effect (%) (Functional assay) | BDNF concentration (BDNF [4]) [pg/mL] | Effect (%) [5] | Mean ± s.e.mean of unbound BDNF level in the putamen (pg/mg protein) (BDNF [6]) | GDNF concentration (GDNF) [pg/mL]
1 | C[C@H]1CC[C@@]2(OC1)O[C@H]1C[C@H]3[C@@H]4CC[C@@H]5C[C@@H](O)CC[C@]5(C)[C@H]4CC[C@]3(C)[C@H]1[C@@H]2C [Sarsasapogenin, sarsasapogenin] | does not delay the progression of the motor neurone degeneration | delayed the deterioration of motor function | up to 62% | significantly delayed the deterioration in the rotarod and grid test performances | NS (NS = No significant response. Significance was taken as ≧30% stimulation or inhibition) | NS (NS = No significant response. Significance was taken as ≧30% stimulation or inhibition) | NS (NS = No significant response. Significance was taken as ≧30% stimulation or inhibition) | NS (NS = No significant response. Significance was taken as ≧30% stimulation or inhibition) | – | – | – | – | – | – | – | – | – | – | – | –
2 | C[C@@H]1CC[C@@]2(OC1)O[C@H]1C[C@H]3[C@@H]4CC[C@@H]5C[C@@H](O)CC[C@]5(C)[C@H]4CC[C@]3(C)[C@H]1[C@@H]2C [Smilagenin, smilagenin] | – | – | – | – | – | – | – | – | NS (NS = No significant response. Significance was taken as ≧30% stimulation or inhibition) | NS (NS = No significant response. Significance was taken as ≧30% stimulation or inhibition) | NS (NS = No significant response. Significance was taken as ≧30% stimulation or inhibition) | NS (NS = No significant response. Significance was taken as ≧30% stimulation or inhibition) | 108.0 ± 5.2 % of control at 0 h | 321.5 ± 54.2 % of control at 0 h | 334.6 ± 48.1 % of control at 0 h | NS (NS = No significant response. Significance was taken as ≧30% stimulation or inhibition) | 3.67 ± 0.05 | NS (NS = No significant response. Significance was taken as ≧30% stimulation or inhibition) | 208.27 ± 36.58 | 6.6 ± 0.7
